Assay [1] concerns cultured fetal murine myocardial cells. Nature of the assay: Average rate of myocyte contraction by video edge motion detector. In kind it is cell-based, B6D2F1 fetal mice. To be noted: control transfected cells in the presence of 10^-3 M isoproterenol. As for the experimental part:
(§1) Cultured fetal murine myocardial cells were prepared as previously described (Iwaki, K. et al., J Biol Chem., 265(23):13809-17 (1990); Sen, A. et al., J Clin Invest., 82 (4):1333-8 (1988)). Myocytes from ventricles of 17.5 day old B6D2F1 fetal mice were fragmented with a straight-edge razor. The tissue was then digested with 0.5 mg/ml collagenase II (Worthington Biochemical Corp., Freehold, N.J.) and 1.0 mg/ml pancreatin (Sigma Chemical Co., St. Louis, Mo.) in ADS buffer (116 mM NaCl, 20 mM HEPES, 1 MM NaH2PO4, 5.5 mM glucose, 5.4 mM KCl, 0.8 mM MgSO4, pH 7.4) at 37° C. for 10 min. The cells were centrifuged at 700 g at 4° C. for 5 min. The cells were then plated onto 48-well plates (Falcon Labware, Cockeysville, Md.) precoated with 1% gelatin or onto 25 mm^2 square coverslips precoated with 1% gelatin and 20 μg/ml laminin at a density of 10^5 cell/ml in Dulbecco's modified Eagle's media (DMEM) supplemented with 10% fetal calf serum (FCS), and Streptomycin 100 μg/ml, and Penicillin (500 μg/mL). The myocytes were grown at 37° C. in 5% CO2.
The transfection of myocytes with lipofection was optimized. […]
The average rate of myocyte contraction was quantitated by motion detector under both baseline and 10^−3 M isoproterenol. […] The statistical significance of the increased rate of myocyte contraction was determined by Student's t-Test analysis.

Assay [2] shares this test system. Nature of the assay: In vitro myocyte contractile recruitment: percentage of beating and fast beating GFP-positive transfected myocytes. The format is cell-based, B6D2F1 fetal mice. As to the method: as §1
The transfection of myocytes with lipofection was optimized. Myocytes were plated as described above and grown overnight. The β2AR, LacZ, or GFP expression circular vectors (1:2.5 M/M; 0.125 μg total DNA/well) were incubated with Lipofectamine (Life Technologies) (12.5 μl/well) in Opti-Mem I (Life Technologies) reduced serum medium(12.5 μl/well) for 30 min at 25° C. After incubation, DMEM (100 μl/well) was added. The myocyte cultures were washed with PBS twice, the Lipofectamine-DNA mixtures were added, and the cultures incubated at 37° C. After 4 hours, an equal volume of DMEM with 20% FCS was added to the cultures. The cultures were incubated overnight and the medium was changed to DMEM with 10% FCS.
The myocytes were assayed 48 hr after transfection. […]
The percentage of beating myocytes was determined for cells transfected with either the β2AR expression vector or the control construct. […] In addition, the percentage of myocytes that were beating faster than 60 beats per minute (bpm) was determined in identical fashion. […]

On to `CC(C)NCC(O)c1ccc(O)c(O)c1` (stereo not shown) [isoproterenol], for which the “average rate of contraction” value in assay [1] was 75+/−18 bpm. Moreover, the “percentage of myocytes contracting” value in assay [2] (control LacZ transfected myocytes, increasing concentrations of isoproterenol (0-10^-3 M)) is 69%. For the same compound, the “percentage of myocytes with chronotropic rates greater than 60 bpm (fast beating cells)” value in assay [2] (control transfected cells at 10^-3 M isoproterenol) was found to be 54%. For the same compound, the “effect on number of contracting myocytes” value in assay [2] (β2AR transfected myocytes, addition of isoproterenol) was “failed to increase”.

These data come from patent US6776987B1, “Enhancement of cardiac chronotropy” (Massachusetts Institute of Technology, priority 1998, dated 2004).
